According to the Deep4Chem optical property database:

Assay: solvent given as SMILES

For `CC1=CC(C)=[N+]2C1=C(c1ccc(C)cc1)c1c(C)cc(/C=C/c3ccc4ccc5cccc6ccc3c4c56)n1[B-]2(F)F`, the emission maximum (in CC1CCCO1) was 618 nm.

`CC1=C2C=CC=[N+]2[B-](F)(F)n2cccc21` showed an emission maximum (in CCCCCC) of 506 nm, an emission maximum (in CO) of 503 nm and an emission maximum (in ClCCl) of 507 nm.

In the case of `F[B-]1(F)n2cccc2C=C2c3ccccc3C(c3ccc[nH]3)=[N+]21`, the emission maximum (in C1CCOC1) is reported as 596 nm, the emission maximum (in CC#N) is reported as 594 nm and the emission maximum (in CCCCCC) is reported as 588 nm. It also gave an emission maximum (in CO) of 592 nm, an emission maximum (in Cc1ccccc1) of 600 nm and an emission maximum (in ClCCl) of 599 nm.

Molecule `COC(=O)C(Cc1ccc2oc(-c3ccc(N(C)C)cc3)nc2c1)NC(=O)OC(C)(C)C` (stereo not drawn) has an emission maximum (in C1CCCCC1) of 377 nm, an emission maximum (in C1CCOC1) of 391.5 nm and an emission maximum (in C1COCCO1) of 377 nm. The emission maximum (in CC1CCCO1) was 384.5 nm, the emission maximum (in CC1COC(=O)O1) was 404.01 nm and the emission maximum (in CC#N) was 395.51 nm. It also gave an emission maximum (in CC(C)=O) of 394.49 nm, an emission maximum (in CC(C)CC(C)(C)C) of 375 nm and an emission maximum (in CC(C)CO) of 396.49 nm. For the same molecule, the emission maximum (in CC(C)O) was 397 nm, the emission maximum (in CC(C)OC(C)C) was 387.51 nm and the emission maximum (in CC(O)CO) was 408.5 nm. For the same molecule, the emission maximum (in CCC(C)CC) was 374.5 nm, the emission maximum (in CCCCC) was 374 nm and the emission maximum (in CCCCCC) was 375 nm. It also gave an emission maximum (in CCCCCCCCC) of 376 nm, an emission maximum (in CCCCCCCCCC) of 377 nm and an emission maximum (in CCCCCCCO) of 396.49 nm. It also gave an emission maximum (in CCCCCCO) of 397.99 nm, an emission maximum (in CCCCCO) of 388.5 nm and an emission maximum (in CCCCO) of 399.5 nm. It also gave an emission maximum (in CCO) of 403 nm, an emission maximum (in CCOC(C)=O) of 381.5 nm and an emission maximum (in CCOCC) of 379.51 nm. The emission maximum (in CN(C)C=O) was 400.5 nm, the emission maximum (in CO) was 403.5 nm and the emission maximum (in COCCOC) was 395.51 nm. The emission maximum (in CS(C)=O) was 408.5 nm, the emission maximum (in Cc1ccccc1) was 374.5 nm and the emission maximum (in Cc1ccccc1C) was 373 nm. For the same molecule, the emission maximum (in ClC(Cl)Cl) was 382 nm, the emission maximum (in ClCCl) was 388 nm and the emission maximum (in NC=O) was 411.51 nm. The emission maximum (in OC1CCCCC1) was 398.99 nm, the emission maximum (in OCCO) was 408.5 nm and the emission maximum (in c1ccccc1) was 375.5 nm.

With `CCCCN(CCCC)c1ccc(C#Cc2cc(C#Cc3ccc(N(CCCC)CCCC)cc3)c(C#Cc3ccc(C#N)cc3)cc2C#Cc2ccc(C#N)cc2)cc1` the emission maximum (in ClCCl) was 557 nm and the emission maximum (in c1ccccc1) was 512 nm.

Molecule `O=C1CC(=O)Nc2cc(Cl)ccc2N1` has an emission maximum (in CS(C)=O) of 336 nm.

Work on `COC(=O)c1cc(=O)n(C)c2cc(-c3ccc(N(C)C)cc3)sc12` yielded an emission maximum (in CC#N) of 599 nm and an emission maximum (in ClCCl) of 554 nm.

For `CC(C)(C)NC(=O)c1ccc(F)c2ccc3c4ccccc4c4ccccc4c3c12`, the emission maximum (in ClCCl) was 405 nm.

`CCCCCCCCCCCCN1C(=O)c2c(c3ccc4cc(-c5ccc(C)cc5)c(OC)cc4c3c3c2ccc2cc(-c4ccc(C)cc4)c(OC)cc23)C1=O` showed an emission maximum (in ClCCl) of 529 nm.

`CC1(C)C(/C=C/C2=C(c3ccc(C(=O)O)cc3)C(=C/C=C3/N(CCCS(=O)(=O)[O-])c4ccc5ccccc5c4C3(C)C)/CCC2)=[N+](CCCS(=O)(=O)[O-])c2ccc3ccccc3c21` showed an emission maximum (in CO) of 811 nm.

With `C(=C\c1ncccn1)/c1ccc(-c2ccc(N(c3ccccc3)c3ccccc3)cc2)cc1` the emission maximum (in ClCCl) was 530 nm.

Work on `NS(=O)(=O)c1ccc(N2N=C(c3ccc(O)cc3)CC2c2ccc(F)cc2)cc1` (stereo not drawn) yielded an emission maximum (in C1CCOC1) of 417 nm, an emission maximum (in C1COCCO1) of 417 nm and an emission maximum (in CC#N) of 417 nm. The emission maximum (in CC(C)O) was 423 nm, the emission maximum (in CCO) was 427 nm and the emission maximum (in CCOC(C)=O) was 416 nm. The emission maximum (in CN(C)C=O) was 421 nm, the emission maximum (in CO) was 430 nm and the emission maximum (in CS(C)=O) was 424 nm. The emission maximum (in O) was 448 nm.

Molecule `CC1=[N+]2C(=Cc3c4c(cn3[B-]2(F)F)-c2nc-4c(-c3ccccc3)c3ccc([nH]3)c(-c3ccccc3)c3nc(c(-c4ccccc4)c4ccc([nH]4)c2-c2ccccc2)C=C3)C(C)C1` (stereo not drawn) has an emission maximum (in ClCCl) of 693 nm.

With `COc1ccc2cc(C(C)C(=O)Oc3ccc(-c4c5nc(c(-c6ccc(C)cc6)c6ccc([nH]6)c(-c6ccc(C)cc6)c6nc(c(-c7ccc(C)cc7)c7ccc4[nH]7)C=C6)C=C5)cc3)ccc2c1` (stereo not drawn) the emission maximum (in ClCCl) was 654 nm.

In the case of `CC(C)(C)c1cc2c(c(C(C)(C)C)c1)O[B-](F)(F)[n+]1c-2nc(-c2ccccc2)c2cc(Cl)ccc21`, the emission maximum (in Cc1ccccc1) is reported as 552 nm.

`O=P1(c2ccccc2)C(c2ccccc2)=Cc2cc3ccccc3cc21` (stereo not drawn) showed an emission maximum (in ClCCl) of 428 nm.

In the case of `N#Cc1c(N2CCCCC2)cc(-c2ccc3ccccc3c2)c2c1-c1ccccc1C2=O`, the emission maximum (in C1CCOC1) is reported as 527 nm.

Molecule `CCN(CC)c1ccc(/C=N/c2cc3nc4ccccc4nc3cc2/N=C/c2ccc(N(CC)CC)cc2O)c(O)c1` has an emission maximum (in CC#N) of 551 nm, an emission maximum (in CN(C)C=O) of 599 nm and an emission maximum (in ClCCl) of 568 nm.

Molecule `CSc1nccc(/C=C/c2ccc(N(c3ccccc3)c3ccc(/C=C/c4ccnc(SC)n4)cc3)cc2)n1` has an emission maximum (in ClCCl) of 540 nm.

For `CC(C)[Si](C#Cc1c2nc3c(nc2c(C#C[Si](C(C)C)(C(C)C)C(C)C)c2nc4ccccc4nc12)C1c2ccccc2C3c2ccccc21)(C(C)C)C(C)C`, the emission maximum (in CCCCCC) was 563 nm.

With `COC(=O)c1cccc2c1C#Cc1c(N)cccc1OCCCO2` the emission maximum (in CC#N) was 487 nm and the emission maximum (in ClCCl) was 453 nm.

`Cc1ccc(C2CC(=O)Oc3c2c2nc4ccc(C)cc4nc2c2ccccc32)cc1` (stereo not drawn) gave an emission maximum (in ClC(Cl)Cl) of 442 nm.

Molecule `Cc1ccc2nc(/C=C/c3ccc(N(C)C)cc3)c(-c3ccccc3)nc2c1` has an emission maximum (in C1COCCO1) of 528 nm, an emission maximum (in CC#N) of 614 nm and an emission maximum (in ClCCl) of 571 nm.

Molecule `F[B-]1(F)n2cccc2C(c2ccccc2)=C2C=CC(c3cccc(OC4=[N+]5C(=C(c6ccccc6)c6cc(Br)c(-c7ccc[nH]7)n6[B-]5(F)F)C=C4Br)c3)=[N+]21` has an emission maximum (in ClC(Cl)Cl) of 644 nm.

Work on `Cc1cccc2nc(-c3cc(=O)c(OCc4ccccc4)co3)c(NC3CCCCC3)n12` yielded an emission maximum (in ClCCl) of 476 nm.

For `O=S(=O)(c1ccc(N2c3ccccc3Oc3ccccc32)cc1)c1ccc(N2c3ccccc3Oc3ccccc32)cc1`, the emission maximum (in C1COCCO1) was 524 nm, the emission maximum (in CC(C)=O) was 577 nm and the emission maximum (in Cc1ccccc1) was 507 nm. For the same molecule, the emission maximum (in ClC(Cl)Cl) was 539 nm and the emission maximum (in c1cc(-n2c3ccccc3c3ccccc32)cc(-n2c3ccccc3c3ccccc32)c1) was 505 nm.

`CN(C)c1ccc(C2=Cc3ccc4ccccc4[n+]3[B-](F)(F)O2)cc1` gave an emission maximum (in C1CCOC1) of 540 nm, an emission maximum (in C1COCCO1) of 516 nm and an emission maximum (in CC1CCCCC1) of 478 nm. For the same molecule, the emission maximum (in CC#N) was 573 nm, the emission maximum (in CCOC(C)=O) was 534 nm and the emission maximum (in CCOCC) was 509 nm. The emission maximum (in CN(C)C=O) was 581 nm, the emission maximum (in CO) was 564 nm and the emission maximum (in COC(C)=O) was 562 nm. It also gave an emission maximum (in ClC(Cl)Cl) of 521 nm.

Molecule `CC[Si](CC)(CC)c1cc2ccc3cccc4ccc(c1C(=O)NC(C)(C)C)c2c34` has an emission maximum (in ClC(Cl)Cl) of 383 nm.

`CCOC(=O)c1c2c3c(ccc(F)c3c3cc4ccccc4cc13)N(C)C2=O` gave an emission maximum (in CC#N) of 415 nm.

`c1ccc2c(c1)-c1ccccc1C21c2cc(-c3ccc4ccc5cccc6ccc3c4c56)ccc2-c2ccc(-c3ccc4ccc5cccc6ccc3c4c56)cc21` showed an emission maximum (in ClC(Cl)Cl) of 421 nm.

`COC(=O)c1ccc(C2=C3C=c4sccc4=[N+]3[B-](F)(F)n3c2cc2sccc23)cc1` gave an emission maximum (in ClCCl) of 604 nm.

In the case of `CCCCn1c2ccc(-c3cccc(F)c3)cc2c2ccc3c4cc(-c5cccc(F)c5)ccc4n(CCCC)c3c21`, the emission maximum (in ClC(Cl)Cl) is reported as 411 nm.

`O=C(c1ccncc1)c1ccc(-n2c3ccc(-n4c5ccccc5c5ccccc54)cc3c3cc(-n4c5ccccc5c5ccccc54)ccc32)cc1` gave an emission maximum (in C1CCOC1) of 532.75 nm, an emission maximum (in Cc1ccccc1) of 481.09 nm and an emission maximum (in c1cc(-c2cccc(-n3c4ccccc4c4ccccc43)c2)cc(-n2c3ccccc3c3ccccc32)c1) of 487.5 nm.

`CC1(C)c2ccccc2N(c2ccccc2)c2ccc(-c3ccc(S(=O)(=O)c4ccc(-c5ccc6c(c5)C(C)(C)c5ccccc5N6c5ccccc5)cc4)cc3)cc21` gave an emission maximum (in Cc1ccccc1) of 419.03 nm and an emission maximum (in O=P(c1ccccc1)(c1ccccc1)c1ccccc1Oc1ccccc1P(=O)(c1ccccc1)c1ccccc1) of 439 nm.
